Laboratory results reported in US20160145267A1, “HETEROARYL SUBSTITUTED PYRAZOLES” (BAYER PHARMA AKTIENGESELLSCHAFT, priority 2013, published 2016).
pIC50: −log10 of the molar value. Read-outs that look alike come from different tables or passages of the source.

How the values were obtained:
[1] = molecular target: T1, catalytic domain of human Bub1 (amino acids 704-1085) (Homo sapiens, UniProt O43683); test: Bub1 kinase assay (TR-FRET); assay type: biochemical
T1 construct: catalytic domain of human Bub1 (amino acids 704-1085); His6 (N); made in house; host or cells: Hi5 insect cells
T1 sequence (O43683 704-1085): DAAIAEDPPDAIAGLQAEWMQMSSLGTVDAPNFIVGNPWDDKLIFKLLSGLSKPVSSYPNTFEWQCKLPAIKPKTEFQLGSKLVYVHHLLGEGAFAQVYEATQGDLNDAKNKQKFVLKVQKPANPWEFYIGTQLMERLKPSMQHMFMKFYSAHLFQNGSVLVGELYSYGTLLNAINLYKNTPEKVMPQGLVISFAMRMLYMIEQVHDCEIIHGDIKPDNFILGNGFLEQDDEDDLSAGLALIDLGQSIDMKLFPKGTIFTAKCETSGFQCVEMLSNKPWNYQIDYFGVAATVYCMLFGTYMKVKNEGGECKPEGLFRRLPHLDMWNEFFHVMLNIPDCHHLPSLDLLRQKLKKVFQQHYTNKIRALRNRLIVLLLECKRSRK
Experimental: To this end, 100-fold concentrated compound solutions (in DMSO) were previously prepared by serial dilution (1:3.4) of 2 mM stocks in a clear low volume 384-well source microtiter plate (Greiner Bio-One, Frickenhausen, Germany), from which 50 nL of compounds were transferred into a black low volume test microtiter plate from the same supplier. […] The resulting mixture (5 μL final volume) was incubated at 22° C. during 60 min., and the reaction was stopped by the addition of 5 μL of an aqueous EDTA-solution (50 mM EDTA, in 100 mM HEPES pH 7.5 and 0.2% (w/v) bovine serum albumin) which also contained the TR-FRET detection reagents (0.2 μM streptavidin-XL665 [Cisbio Bioassays, Codolet, France] and 1 nM anti-phoshoSerine antibody [Merck Millipore, cat. #35-001] and 0.4 nM LANCE EU-W1024 labeled anti-mouse IgG antibody [Perkin-Elmer, product no. AD0077, alternatively a Terbium-cryptate-labeled anti-mouse IgG antibody from Cisbio Bioassays can be used]). The stopped reaction mixture was further incubated 1 h at 22° C. in order to allow the formation of complexes between peptides and detection reagents. Subsequently, the amount of product was evaluated by measurement of the resonance energy transfer from the Eu-chelate-antibody complex recognizing the Phosphoserine residue to the streptavidin-XL665 bound to the biotin moiety of the peptide.

HeLa cell line = test: Proliferation assay (HeLa cell line); assay type: cell-based; conditions: Homo sapiens, 96 h, read-out: Biological Assay 2: Proliferation assay (HeLa cell line) median IC50
Experimental: Cultivated tumor cells (cells were ordered from ATCC, except HeLa-MaTu and HeLa-MaTu-ADR, which were ordered from EPO-GmbH, Berlin) were plated at a density of 1000 to 5000 cells/well, depending on the growth rate of the respective cell line, in a 96-well multititer plate in 200 μL of their respective growth medium supplemented 10% fetal calf serum. After 24 hours, the cells of one plate (zero-point plate) were stained with crystal violet (see below), while the medium of the other plates was replaced by fresh culture medium (200 μL), to which the test substances were added in various concentrations (0 μM, as well as in the range of 0.001-10 μM; the final concentration of the solvent dimethyl sulfoxide was 0.5%). The cells were incubated for 4 days in the presence of test substances. Cell proliferation was determined by staining the cells with crystal violet: the cells were fixed by adding 20 μL/measuring point of an 11% glutaric aldehyde solution for 15 minutes at room temperature. After three washing cycles of the fixed cells with water, the plates were dried at room temperature. The cells were stained by adding 100 μL/measuring point of a 0.1% crystal violet solution (pH 3.0). After three washing cycles of the stained cells with water, the plates were dried at room temperature. The dye was dissolved by adding 100 μl/measuring point of a 10% acetic acid solution. Absorbtion was determined by photometry at a wavelength of 595 nm. The change of cell number, in percent, was calculated by normalization of the measured values to the absorbtion values of the zero-point plate (=0%) and the absorbtion of the untreated (0 μm) cells (=100%). The IC50 values were determined by means of a 4 parameter fit.

[2] = 10 μM ATP, 1 μM peptide substrate, TR-FRET, read-out: Biological Assay 1: Bub1 kinase assay median IC50
[3] = 4 days incubation, crystal violet staining

| SMILES | pIC50 [1, 2] | pIC50 (HeLa cell line) | pIC50 [1] | pIC50 (HeLa cell line; [3]) |
| --- | --- | --- | --- | --- |
| CCOc1cc(F)c(Cn2nc(-c3nc(Nc4ccncn4)c(N4CCOCC4)c(Nc4ccncn4)n3)c(C)c2C2CC2)c(F)c1 [Example 2-2-7, 2-[5-cyclopropyl-1-(4-ethoxy-2,6-difluorobenzyl)-4-methyl-1H-pyrazol-3-yl]-5-(morpholin-4-yl)-N,N′-di(pyrimidin-4-yl)pyrimidine-4,6-diamine] |  |  | 6.85 |  |
| CCOc1cc(F)c(Cn2nc(-c3nc(N)cc(Nc4ccnnc4)n3)c(C)c2C2CC2)c(F)c1 [Example 2-1-23, 2-[5-cyclopropyl-1-(4-ethoxy-2,6-difluorobenzyl)-4-methyl-1H-pyrazol-3-yl]-N-(pyridazin-4-yl)pyrimidine-4,6-diamine] | 7.74 | 5.22 |  |  |
| CCOc1cc(F)c(Cn2nc(-c3nc(NC(=O)NC4CCCCC4)cc(Nc4ccncn4)n3)c(C)c2C2CC2)c(F)c1 [Example 2-1-13, 1-cyclohexyl-3-{2-[5-cyclopropyl-1-(4-ethoxy-2,6-difluorobenzyl)-4-methyl-1H-pyrazol-3-yl]-6-(pyrimidin-4-ylamino)pyrimidin-4-yl}urea] | 6.26 |  |  |  |
| CCOc1cc(F)c(Cn2nc(-c3nc(N)c(NC(=O)COC)c(Nc4ccncn4)n3)c(C)c2C2CC2)c(F)c1 [Example 2-1-28, N-{4-amino-2-[5-cyclopropyl-1-(4-ethoxy-2,6-difluorobenzyl)-4-methyl-1H-pyrazol-3-yl]-6-(pyrimidin-4-ylamino)pyrimidin-5-yl}-2-methoxyacetamide] |  |  | 7.89 | 5.00 |
| CCOc1cc(F)c(Cn2nc(-c3nc(NC(=O)NC4CCCCC4)c(N4CCOCC4)c(Nc4ccncn4)n3)c(C)c2C2CC2)c(F)c1 [Example 2-1-21, 1-cyclohexyl-3-{2-[5-cyclopropyl-1-(4-ethoxy-2,6-difluorobenzyl)-4-methyl-1H-pyrazol-3-yl]-5-(morpholin-4-yl)-6-(pyrimidin-4-ylamino)pyrimidin-4-yl}urea] | 5.85 | 5.13 |  |  |
| CCOc1cc(F)c(Cn2nc(-c3nc(Nc4ccnnc4)nc(Nc4ccnnc4)n3)c(C)c2C2CC2)c(F)c1 [Example 2-2-11, 6-[5-cyclopropyl-1-(4-ethoxy-2,6-difluorobenzyl)-4-methyl-1H-pyrazol-3-yl]-N,N′-di(pyridazin-4-yl)-1,3,5-triazine-2,4-diamine] |  |  | 5.26 |  |
| CCOc1cc(F)c(Cn2nc(-c3nc(N)nc(Nc4ccnnc4)n3)c(C)c2C2CC2)c(F)c1 [Example 2-1-24, 6-[5-cyclopropyl-1-(4-ethoxy-2,6-difluorobenzyl)-4-methyl-1H-pyrazol-3-yl]-N-(pyridazin-4-yl)-1,3,5-triazine-2,4-diamine] |  |  | 6.89 | 5.22 |
| CCOc1cc(F)c(Cn2nc(-c3nc(Nc4ccnc(OC)c4)cc(Nc4ccnc(OC)c4)n3)c(C)c2C2CC2)c(F)c1 [Example 2-2-2, 2-[5-cyclopropyl-1-(4-ethoxy-2,6-difluorobenzyl)-4-methyl-1H-pyrazol-3-yl]-N,N′-bis(2-methoxypyridin-4-yl)pyrimidine-4,6-diamine] |  |  | ≤ 4.70 |  |
| CCNC(=O)Nc1nc(-c2nn(Cc3c(F)cc(OCC)cc3F)c(C3CC3)c2C)nc(Nc2ccncn2)c1OC [Example 2-1-15, 1-{2-[5-cyclopropyl-1-(4-ethoxy-2,6-difluorobenzyl)-4-methyl-1H-pyrazol-3-yl]-5-methoxy-6-(pyrimidin-4-ylamino)pyrimidin-4-yl}-3-ethylurea] | 6.47 |  |  |  |

The next lines start with the values.

| pIC50 [1, 2] | pIC50 (HeLa cell line) | pIC50 [1] | pIC50 (HeLa cell line; [3]) | SMILES |
| --- | --- | --- | --- | --- |
| 6.51 | 5.42 |  |  | CCNC(=O)Nc1nc(-c2nn(Cc3c(F)cc(OCC)cc3F)c(C3CC3)c2C)nc(Nc2ccncc2)c1OC [Example 2-1-14, 1-{2-[5-cyclopropyl-1-(4-ethoxy-2,6-difluorobenzyl)-4-methyl-1H-pyrazol-3-yl]-5-methoxy-6-(pyridin-4-ylamino)pyrimidin-4-yl}-3-ethylurea] |
| 6.12 | < 5.00 |  |  | CCOc1cc(F)c(Cn2nc(-c3nc(Nc4ccncc4)c(NS(=O)(=O)CC)c(Nc4ccncc4)n3)c(C)c2C2CC2)c(F)c1 [Example 2-2-17, N-{2-[5-cyclopropyl-1-(4-ethoxy-2,6-difluorobenzyl)-4-methyl-1H-pyrazol-3-yl]-4,6-bis(pyridin-4-ylamino)pyrimidin-5-yl}ethanesulfonamide] |
| 8.32 | 5.46 |  |  | CCOc1cc(F)c(Cn2nc(-c3nc(N)c(OC)c(Nc4ccncc4)n3)c(C)c2C2CC2)c(F)c1 [Example 2-1-4, 2-[5-cyclopropyl-1-(4-ethoxy-2,6-difluorobenzyl)-4-methyl-1H-pyrazol-3-yl]-5-methoxy-N-(pyridin-4-yl)pyrimidine-4,6-diamine] |
| 4.89 | 5.52 |  |  | CCOc1cc(F)c(Cn2nc(-c3nc(Nc4ccncc4)c(NS(=O)(=O)C(F)(F)F)c(Nc4ccncc4)n3)c(C)c2C2CC2)c(F)c1 [Example 2-2-18, N-{2-[5-cyclopropyl-1-(4-ethoxy-2,6-difluorobenzyl)-4-methyl-1H-pyrazol-3-yl]-4,6-bis(pyridin-4-ylamino)pyrimidin-5-yl}-1,1,1-trifluoromethanesulfonamide] |
| 8.00 | < 5.00 |  |  | CCOc1cc(F)c(Cn2nc(-c3nc(N)cc(Nc4ccncc4)n3)c(C)c2C2CC2)c(F)c1 [Example 2-1-1, 2-[5-cyclopropyl-1-(4-ethoxy-2,6-difluorobenzyl)-4-methyl-1H-pyrazol-3-yl]-N-(pyridin-4-yl)pyrimidine-4,6-diamine] |
|  |  | 8.15 | 5.42 | CCOc1cc(F)c(Cn2nc(-c3nc(N)nc(Nc4ccncc4)n3)c(C)c2C2CC2)c(F)c1 [Example 2-1-8, 6-[5-cyclopropyl-1-(4-ethoxy-2,6-difluorobenzyl)-4-methyl-1H-pyrazol-3-yl]-N-(pyridin-4-yl)-1,3,5-triazine-2,4-diamine] |
|  |  | 6.47 | 5.48 | CCOc1cc(F)c(Cn2nc(-c3nc(NC(=O)NC4CCCCC4)c(OC)c(Nc4ccncc4)n3)c(C)c2C2CC2)c(F)c1 [Example 2-1-16, 1-cyclohexyl-3-{2-[5-cyclopropyl-1-(4-ethoxy-2,6-difluorobenzyl)-4-methyl-1H-pyrazol-3-yl]-5-methoxy-6-(pyridin-4-ylamino)pyrimidin-4-yl}urea] |
| 6.46 | 5.55 |  |  | CCOc1cc(F)c(Cn2nc(-c3nc(Nc4ccncc4)c(NC(=O)COC)c(Nc4ccncc4)n3)c(C)c2C2CC2)c(F)c1 [Example 2-2-14, N-{2-[5-cyclopropyl-1-(4-ethoxy-2,6-difluorobenzyl)-4-methyl-1H-pyrazol-3-yl]-4,6-bis(pyridin-4-ylamino)pyrimidin-5-yl}-2-methoxyacetamide] |
|  |  | 6.92 | 5.00 | CCOc1cc(F)c(Cn2nc(-c3nc(Nc4ccncn4)c(OCCOC)c(Nc4ccncn4)n3)c(C)c2C2CC2)c(F)c1 [Example 2-2-13, 2-[5-cyclopropyl-1-(4-ethoxy-2,6-difluorobenzyl)-4-methyl-1H-pyrazol-3-yl]-5-(2-methoxyethoxy)-N,N′-di(pyrimidin-4-yl)pyrimidine-4,6-diamine] |
| 6.51 |  |  |  | CCOc1cc(F)c(Cn2nc(-c3nc(Nc4ccncc4)c(OC)c(Nc4ccncc4)n3)c(C)c2C2CC2)c(F)c1 [Example 2-2-4, 2-[5-cyclopropyl-1-(4-ethoxy-2,6-difluorobenzyl)-4-methyl-1H-pyrazol-3-yl]-5-methoxy-N,N′-di(pyridin-4-yl)pyrimidine-4,6-diamine] |
| 6.62 |  |  |  | CCOc1cc(F)c(Cn2nc(-c3nc(NC(=O)NC4CCCCC4)cc(Nc4ccncc4)n3)c(C)c2C2CC2)c(F)c1 [Example 2-1-12, 1-cyclohexyl-3-{2-[5-cyclopropyl-1-(4-ethoxy-2,6-difluorobenzyl)-4-methyl-1H-pyrazol-3-yl]-6-(pyridin-4-ylamino)pyrimidin-4-yl}urea] |
|  |  | 7.17 |  | CCOc1cc(F)c(Cn2nc(-c3nc(Nc4ccncc4)nc(Nc4ccncc4)n3)c(C)c2C2CC2)c(F)c1 [Example 2-2-8, 6-[5-cyclopropyl-1-(4-ethoxy-2,6-difluorobenzyl)-4-methyl-1H-pyrazol-3-yl]-N,N′-di(pyridin-4-yl)-1,3,5-triazine-2,4-diamine] |
